In brackets after ≈: the same amount, converted by molar mass.
How the values were obtained:
Type in all cases: functional
[1] = test system: Candida albicans; test: Minimum inhibitory concentration required to inhibit 90-100%growth of Candida albicans
[2] = test system: Nakaseomyces glabratus; test: Minimum inhibitory concentration required to inhibit 90-100%growth of Candida glabrata
[3] = test system: Cryptococcus neoformans; test: Minimum inhibitory concentration required to inhibit 90-100% growth of Cryptococcus neoformans

MIC [1] [mg/L]	MIC [2] [mg/L]	MIC [3] [mg/L]	Compound
2 (≈ 3.51 µM)	> 128	> 128	CC(C)C1=CC2CC3(C=O)[C@@H]4CC[C@@H](C)[C@H]4CC2(CO[C@@H]2O[C@H](C)CN(CCC4=CCCCC4)C[C@@H]2O)[C@]13C(=O)O
< 0.06	0.125 (≈ 0.247 µM)	16 (≈ 31.6 µM)	C=C(Cl)CN1C[C@H](OCC23C[C@@H]4[C@H](C)CC[C@H]4C4(C=O)CC2C=C(C(C)C)[C@@]34C(=O)O)O[C@H](C)C1
1 (≈ 1.79 µM)	32 (≈ 57.4 µM)	> 128	CC(C)C1=CC2CC3(C=O)[C@@H]4CC[C@@H](C)[C@H]4CC2(CO[C@@H]2O[C@H](C)CN(CCC(F)(F)F)C[C@@H]2O)[C@]13C(=O)O
< 0.06	1 (≈ 1.72 µM)	> 128	COc1ccc(CN2C[C@@H](C)O[C@@H](OCC34C[C@@H]5[C@H](C)CC[C@H]5C5(C=O)CC3C=C(C(C)C)[C@@]45C(=O)O)[C@@H](O)C2)cc1
> 128	> 128	> 128	CC(C)C1=CC2CC3(C=O)[C@@H]4CC[C@@H](C)[C@H]4CC2(CO[C@@H]2O[C@H](C)[C@@H](O)[C@@H](O)[C@@H]2O)[C@]13C(=O)O
2 (≈ 3.52 µM)	64 (≈ 113 µM)	> 128	COc1ccc(N2C[C@@H](C)O[C@@H](OCC34C[C@@H]5[C@H](C)CC[C@H]5C5(C=O)CC3C=C(C(C)C)[C@@]45C(=O)O)[C@@H](O)C2)cc1
> 128	> 128	> 128	CC(C)C1=CC2CC3(C=O)[C@@H]4CC[C@@H](C)[C@H]4CC2(CO[C@@H]2O[C@H](C)CN(CCc4ncc[nH]4)C[C@@H]2O)[C@]13C(=O)O
2 (≈ 3.6 µM)	> 128	32 (≈ 57.6 µM)	Cc1coc(CN2C[C@@H](C)O[C@@H](OCC34C[C@@H]5[C@H](C)CC[C@H]5C5(C=O)CC3C=C(C(C)C)[C@@]45C(=O)O)[C@@H](O)C2)c1
2 (≈ 3.41 µM)	> 128	128 (≈ 218 µM)	CC(C)C1=CC2CC3(C=O)[C@@H]4CC[C@@H](C)[C@H]4CC2(CO[C@@H]2O[C@H](C)CN(Cc4ccccc4Cl)C[C@@H]2O)[C@]13C(=O)O
2 (≈ 3.59 µM)	128 (≈ 229 µM)	32 (≈ 57.4 µM)	CC(C)C1=CC2CC3(C=O)[C@@H]4CC[C@@H](C)[C@H]4CC2(CO[C@@H]2O[C@H](C)CN(Cc4cccs4)C[C@@H]2O)[C@]13C(=O)O
4 (≈ 7.27 µM)	64 (≈ 116 µM)	> 128	C=C(Cl)CN1C[C@@H](C)O[C@@H](OCC23C[C@@H]4[C@H](C)CC[C@H]4C4(C=O)CC2C=C(C(C)C)[C@@]34C(=O)O)[C@@H](OC)C1
8 (≈ 13.8 µM)	16 (≈ 27.7 µM)	> 128	C=C(Cl)CN1C[C@@H](C)O[C@@H](OCC23C[C@@H]4[C@H](C)CC[C@H]4C4(C=O)CC2C=C(C(C)C)[C@@]34C(=O)O)[C@@H](OC(C)=O)C1
< 0.06	2 (≈ 3.72 µM)	16 (≈ 29.7 µM)	C=C(Cl)CN1C[C@@H](C)O[C@@H](OCC23C[C@@H]4[C@H](C)CC[C@H]4C4(C=O)CC2C=C(C(C)C)[C@@]34C(=O)O)[C@H](F)C1
8 (≈ 15.9 µM)	128 (≈ 255 µM)	> 128	C=CCN1C[C@@H](C)O[C@@H](OCC23C[C@@H]4[C@H](C)CC[C@H]4C4(C=O)CC2C=C(C(C)C)[C@@]34C(=O)O)[C@@H](O)C1
0.5 (≈ 0.933 µM)	32 (≈ 59.7 µM)	4 (≈ 7.46 µM)	C=C(Cl)CN1C[C@@H](C)O[C@@H](OCC23C[C@@H]4[C@H](C)CC[C@H]4C4(C=O)CC2C=C(C(C)C)[C@@]34C(=O)O)[C@@H](O)C1
0.125 (≈ 0.24 µM)	2 (≈ 3.85 µM)	1 (≈ 1.92 µM)	C=C(Cl)CN1CC[C@H](OCC23C[C@@H]4[C@H](C)CC[C@H]4C4(C=O)CC2C=C(C(C)C)[C@@]34C(=O)O)O[C@H](C)C1
> 16	> 128	> 128	CC(C)C1=CC2CC3(C=O)[C@@H]4CC[C@@H](C)[C@H]4CC2(CO[C@@H]2O[C@H](C)CN(CC4CC4)C[C@@H]2O)[C@]13C(=O)O
0.125 (≈ 0.242 µM)	64 (≈ 124 µM)	> 64	C=C(C)CN1C[C@@H](C)O[C@@H](OCC23C[C@@H]4[C@H](C)CC[C@H]4C4(C=O)CC2C=C(C(C)C)[C@@]34C(=O)O)[C@@H](O)C1
16 (≈ 30.8 µM)	> 128	> 128	COCCN1C[C@@H](C)O[C@@H](OCC23C[C@@H]4[C@H](C)CC[C@H]4C4(C=O)CC2C=C(C(C)C)[C@@]34C(=O)O)[C@@H](O)C1
16 (≈ 32.5 µM)	> 128	8 (≈ 16.2 µM)	CO[C@H]1[C@@H](O)[C@H](O)[C@H](OC[C@@]23C[C@@H]4[C@H](C)CC[C@H]4[C@@]4(C=O)CC2C=C(C(C)C)[C@@]34C(=O)O)O[C@@H]1C [SORDARIN]
